For test [1], the target named is T1, hMT2; MT2 melatonin receptor (Homo sapiens, UniProt P49286).
T1 construct: gene MTNR1B
T1 sequence (P49286 1-362): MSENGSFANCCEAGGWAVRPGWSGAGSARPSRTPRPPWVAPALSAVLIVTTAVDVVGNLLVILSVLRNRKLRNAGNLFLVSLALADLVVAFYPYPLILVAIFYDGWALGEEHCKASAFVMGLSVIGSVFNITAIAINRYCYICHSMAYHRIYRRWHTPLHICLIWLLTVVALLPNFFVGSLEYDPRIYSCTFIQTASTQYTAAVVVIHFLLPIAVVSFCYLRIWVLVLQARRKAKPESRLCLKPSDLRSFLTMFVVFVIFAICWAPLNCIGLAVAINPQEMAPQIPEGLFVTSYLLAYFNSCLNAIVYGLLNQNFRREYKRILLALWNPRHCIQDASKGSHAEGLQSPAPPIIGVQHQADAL
In words: […]-GTPγS binding, CHO-K1 membranes. The class given is biochemical. (GTPγS is a poorly hydrolysed GTP analogue; its binding reports G protein activation.)

Test [2] deals with T2, hMT1; MT1 melatonin receptor (Homo sapiens, UniProt P48039).
T2 construct: gene MTNR1A
T2 sequence (P48039 whole entry): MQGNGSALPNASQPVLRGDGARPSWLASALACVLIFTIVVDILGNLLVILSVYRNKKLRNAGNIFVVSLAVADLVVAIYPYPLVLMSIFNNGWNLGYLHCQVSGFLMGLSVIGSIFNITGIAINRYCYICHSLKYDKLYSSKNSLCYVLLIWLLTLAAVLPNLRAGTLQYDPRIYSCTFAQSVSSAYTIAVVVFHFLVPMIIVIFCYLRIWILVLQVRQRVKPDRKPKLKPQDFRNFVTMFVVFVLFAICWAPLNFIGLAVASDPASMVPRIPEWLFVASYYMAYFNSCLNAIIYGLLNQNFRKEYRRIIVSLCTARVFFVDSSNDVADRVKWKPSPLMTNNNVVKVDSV
As to the kind of experiment: […]-GTPγS binding, CHO-K1 membranes. Format: biochemical. Particulars: read-out: MT1 / pEC50 (converted).

Test [3] has as its target T1, hMT2; MT2 melatonin receptor. As to the kind of experiment: […]-[…]-iodomelatonin displacement, CHO-K1 membranes. Format: binding.
The target in test [4] is T2, hMT1; MT1 melatonin receptor. Described as above. The class given is binding.
Where [5] appears, read: radioligand […]-[…]-iodomelatonin.
Setting [6] is: read-out: MT2 / pEC50 (converted).

Read-outs that look alike come from different tables or passages of the source. Bounds are passed on as bounds.

Consider `COc1cc(CC(=O)OC(C)(C)C)c(Cc2cc(OC)c(OC)cc2-c2ccccc2)cc1OC` [DIV6519], for which the EC50 in test [1] (read-out: MT1 / pEC50 (converted)) and in test [2] was above 10000 nM in each case. The figures for the inhibition constant Ki in test [3] (setting [5]) and in test [4] (setting [5]) were 0.49 ± 0.01 nM and 44 ± 7 nM, respectively.

With `COc1ccc(Cc2cc(OC)c(OC)cc2CC(=O)OC(C)(C)C)cc1OC` [DIV4288], the figures for the EC50 in test [1] (setting [6]) and in test [2] were 2.04 nM and above 10000 nM, respectively. Moreover, the results for the inhibition constant (Ki) in test [3] (setting [5]) and in test [4] (setting [5]) were 1.4 ± 0.1 nM and 1300 ± 97 nM, respectively.

Turning to `COc1cc(F)c(Cc2cc(OC)c(OC)cc2CC(=O)OC(C)(C)C)cc1OC` [DIV6518], the EC50 in test [1] (setting [6]) was 1.17 nM; in test [2], above 10000 nM. For the same molecule, the inhibitory constant (Ki) – broadly, the dissociation constant of the complex between target and ligand, obtained from inhibition or displacement – was 1.4 ± 0.3 nM in test [3] (setting [5]) and 630 ± 55 nM in test [4] (setting [5]).

Consider `COc1cc(I)c(Cc2cc(OC)c(OC)cc2CC(=O)OC(C)(C)C)cc1OC` [DIV0880], for which the EC50 in test [1] (setting [6]) was 0.331 nM; in test [2] it was above 10000 nM. For the same molecule, the Ki worked out at 1 ± 0.1 nM in test [3] and 1200 ± 143 nM in test [4].

As for `COc1cc(Br)c(Cc2cc(OC)c(OC)cc2CC(=O)OC(C)(C)C)cc1OC` [DIV0879], the EC50 is 1.38 nM in test [1] (setting [6]) and above 10000 nM in test [2]. Moreover, the Ki in test [3] (setting [5]) was 1.4 ± 0.1 nM; in test [4] it was 1780 ± 118 nM.

These data come from paper PMC5535840 (International Journal of Molecular Sciences, 2017).
